According to patent publication US9023356B2, “Treatment method using EGFR antibodies and SRC inhibitors and related formulations” (Ludwig Institute for Cancer Research Ltd, priority 2007, dated 2015):
Where two headings read alike, the source gives them in different places.

Columns and labels:
[1] = test system: Multiple cell lines in vitro; details: full text: Sensitivity correlated with wt EGFR number; no in vivo data; cited from earlier work
[2] = test system: Multiple cell lines in vitro; details: full text: Sustained signaling through Akt or Erk may cause resistance; no in vivo data; cited from earlier work
[3] = test system: Glioma cell lines in vitro; details: full text: Resistant glioma expresses IGFR-1 which is further up-regulated by AG1478; effect appears mediated through PI3-K/Akt; single cell line in vitro; cited from earlier work
[4] = test system: Patients with colorectal cancer; details: full text: Response correlated with increase in EGFR copy number; small sample numbers; cited from earlier work
[5] = test system: BT474 breast and MKN7 gastric cancer cells in vitro; details: full text: Activation of erbB2/3 heterodimers by heregulin generated resistance; no in vivo data; cited from earlier work
Patients with NSCLC [6] = details: full text: A secondary mutation in EGFR kinase causes resistance; cited from earlier work
[7] = test system: Multiple cell lines in vitro and xenografts; details: full text: More difficult to inhibit the phosphorylation of EGFR in the presence of ErbB2; cited from earlier work
[8] = test system: Multiple cell lines in vitro; details: full text: Sensitivity correlated with wt EGFR number. Constitutive active MAPK increased resistance; no in vivo data; cited from earlier work
[9] = test system: A431 and MDA-468 breast cancer cells in vitro; details: full text: Sustained signaling through Akt causes resistance. Presence of PTEN increases effectiveness of EGFR therapeutics; no in vivo data; cited from earlier work
Patients with NSCLC [10] = details: full text: Patients with activating mutations in the EGFR kinase domain more likely to respond; not all patients with mutations respond; cited from earlier work
[11] = test system: de2-7 EGFR phosphorylation in U87MG glioma cells; assay: Immunoblotting of de2-7 EGFR phosphorylation after Src-family kinase inhibitors; assay type: cell-based; details: 10 μM, 30 minutes or 24 h, serum starved cells
Description: FIG. 7A-7C. Interaction between de2-7 EGFR and Src. (A) Cells were serum starved overnight prior to treatment with 10 μM PP1 or PP2 or vehicle (DMSO) for 30 minutes or 24 h prior to immunoprecipitation with mAb528, mAb806 or an irrelevant isotype control. Immunoblotting was performed with an antibody specific for Y845 of the EGFR, while total de2-7 EGFR was visualized with the rabbit c-terminal polyclonal antibody. Results shown are representative of four independent experiments. […] Mice were treated with 1 mg mAb 806 three times per week for two weeks (days 18, 20, 22, 25, 27 and 29).
Cells were lysed in cold lysis buffer (30 mM HEPES, 150 mM NaCl, 10 mM NaF, 1% Triton X-100, 200 μM NaO3V, 0.4% H2O2 and the protease inhibitor cocktail set 1 (Calbiochem, San Diego, Calif.) containing 500 μM AEBSF, 150 nM Aprotinin, 1 μM E-64 protease inhibitor, 0.5 mM EDTA and 1 μM Leupeptin, pH 7.4). Lysates were immunoprecipitated with the mAb 806 or 528 and the resultant precipitates analyzed by immunoblotting as described by us in detail (21).
Activation of the wt EGFR leads to the transient activation of Src kinase. In a synergistic manner, activation of Src leads to phosphorylation tyrosine 845 (Y845) on the EGFR, which is not an auto-phosphorylation site rather a target for Src phosphorylation (24). Using an antibody specific to Y845 we examined the phosphorylation of Y845 in the de2-7 EGFR.

[12] = test system: Multiple cell lines in vitro and xenografts; details: full text: Sensitivity correlated with wt EGFR number; cited from earlier work

Which results are given for `COc1cc2ncnc(Nc3cccc(Br)c3)c2cc1OC` [PD153035]?
Observation [1]: Sensitivity correlated; Observation [2]: Sustained signaling

For `COc1cc2ncnc(Nc3cccc(Cl)c3)c2cc1OC` [AG1478], which Observation [3] is on record?
The Observation was “Resistant glioma”.

Which Observation [4] does the source give for “ABX: monoclonal antibody directed to the EGFR” here?
The Observation was “Response correlated”.

Which Observation [5] does the source give for `Cc1[nH]c2ncnc(Nc3cccc(Cl)c3)c2c1C` [CGP59326] here?
Its Observation is “Activation of erbB2/3”.

With `C#Cc1cccc(Nc2ncnc3cc(OCCOC)c(OCCOC)cc23)c1` [OSI-774] as the molecule, how does the Observation (Patients with NSCLC [6]) read?
The Observation was “A secondary mutation”.

With `COc1cc2ncnc(Nc3ccc(F)c(Cl)c3)c2cc1OCCCN1CCOCC1` [ZD1839] as the molecule, how does the Observation [7] read?
Its Observation is “More difficult to inhibit”.

And the Observation [8]?
Its Observation is “Sensitivity correlated”.

And the Observation [2]?
Its Observation is “Sustained signaling”.

What about the Observation [9] of the same molecule?
Its Observation is “Sustained signaling”.

What about the Observation (Patients with NSCLC [10]) of the same molecule?
Its Observation is “Patients with activating”.

And the Observation (Patients with NSCLC [6])?
Its Observation is “A secondary mutation”.

Which results are given for `CC(C)(C)n1nc(-c2ccc(Cl)cc2)c2c(N)ncnc21` [PP2, (4-chlorophenyl)-7-(t-butyl)pyrazolo[3,4-d]-pyrimidine]?
Phosphorylation at Y845 of de2-7 EGFR [11]: rapidly blocked; autophosphorylation site at Y1173 of de2-7 EGFR [11]: relatively unaffected

B1: EMD72000: EGFR inhibitor listed in Table 1 (antibody, chains of the INN, looked up, V domains shown)
VH: QVQLVQSGAEVKKPGASVKVSCKASGYTFTSHWMHWVRQAPGQGLEWIGEFNPSNGRTNYNEKFKSKATMTVDTSTNTAYMELSSLRSEDTAVYYCASRDYDYDGRYFDYWGQGTLVTVSS
VL: DIQMTQSPSSLSASVGDRVTITCSASSSVTYMYWYQQKPGKAPKLLIYDTSNLASGVPSRFSGSGSGTDYTFTISSLQPEDIATYYCQQWSSHIFTFGQGTKVEIK
With B1 as the molecule, how does the Observation [12] read?
Its Observation is “Sensitivity correlated”.
